Test results: US8957012B2, “Gamma secretase inhibitor for treatment of herpesvirus infection” (The Trustees of the University of Pennsylvania, priority 2006, dated 2015)
“Also recorded” adds a separate entry of the source.

Tests used:
[1] = system: KSHV-GFP Bac36 recombinant virus in Vero cells; type: cell-based
KSHV in BCBL1 cells = type: cell-based
BCBL1 cells [2] = test: SCID mouse model of KSHV infected B lymphoma; conditions: listed as GSI
DG75 cells [3] = test: Cell proliferation, trypan blue counting; type: cell-based; conditions: KSHV-negative cells; RPMI 1640 with 5% BGS; trypan blue counts
Method: (§1) Each cell type (100,000 cells) was cultured in RPMI 1640 with 5% BGS. At each time point, cells were stained with trypan blue and counted. The results represent three independent experiments. (B) CFSE staining showing mitosis of DG75 (left panel) and BCBL1 (right panel) cells. Five million cells were cultured in RPMI 1640 with 5% BGS and mock treated (red curves) or treated with γ-secretase inhibitor at 20 μM (blue curves). At 48 h post treatment, cells were harvested for FACS analysis to determine mitotic activity. Gray and black curves represent negative and positive controls, respectively. The negative control was non-CFSE-staining cells, and the positive control was CFSE-staining but immediately fixed cells. (C) 7AAD staining analysis of mock treated (left panel) and KSHV-infected (right panel) primary B cells. Two million primary B cells were mock treated or KSHV infected for 4 weeks and harvested for 7AAD staining. The percentages of dead and necrotic cells are shown. (D) Four-week KSHV-infected primary B cells were harvested and mock treated (left panel) or treated with γ-secretase inhibitor (right panel) for 5 days, and then cells were stained with 7AAD for FACS analysis.
(§2) As was mentioned previously, aberrant Notch signaling is highly associated with oncogenesis. […] Cells stained with CFSE followed by treatment with the γ-secretase inhibitor for 48 h were monitored by FACS.

BCBL1 cells [4] = test: Cell proliferation, trypan blue counting; type: cell-based; conditions: KSHV-positive cells; RPMI 1640 with 5% BGS; trypan blue counts
Method: as §1, §2

[5] = system: KSHV-infected primary B cells; test: 7AAD staining FACS analysis of cell death; type: cell-based; conditions: 4-week KSHV Bac36-infected primary B cells; treated 5 days; mock-treated 21.2%
DG75 cells [6] = test: Cell cycle distribution, propidium iodide FACS; type: cell-based; conditions: 48 h post treatment
Method: (§3) At 48 h post treatment, cells were harvested, fixed, and stained with propidium iodide. M2, M3, and M4 represent the G1, S, and G2/M populations of cells, respectively. M1 and M5 represent hypo- and hypernucleated cells, respectively. The percentage of cells in each different phase is indicated. Western blot analysis indicates the ICN levels in γ-secretase inhibitor-treated DG75 cells or BCBL1 cells. The relative density (RD) of ICN in each sample is also shown.
(§4) As was shown in the above Examples; a γ-secretase inhibitor can dramatically slow down proliferation of the KSHV-positive BCBL1 cell line.

BCBL1 cells [7] = test: Cell cycle distribution, propidium iodide FACS; type: cell-based; conditions: 48 h post treatment
Method: as §3, §4

[8] = system: cyclin D1 in KSHV-positive cells; test: Western blot of cyclin D1 levels; conditions: KSHV-positive cells treated with inhibitor
[9] = system: Notch1 ICN in BCBL1 cells; test: Western blot of ICN levels; type: cell-based; conditions: BCBL1 cells treated with inhibitor
Method: as §3, §4

DG75 cells [10] = test: CFSE staining of mitotic activity by FACS; type: cell-based; conditions: 20 μM, 48 h, treated vs untreated
Method: as §1, §2

BCBL1 cells [11] = test: CFSE staining of mitotic activity by FACS; type: cell-based; conditions: 20 μM, 48 h, vs untreated cells
Method: as §1, §2

Structure (SMILES) | GFP signals in cells infected with supernatant (FACS) [1] | RTA expression (Western blot) (KSHV in BCBL1 cells) | production of infectious virions in supernatant (KSHV in BCBL1 cells) | survival time of mice (BCBL1 cells [2]; SCID mice with BCBL1, 30 mg/kg daily, vs saline control) | progression of the tumor / formation of tumor and ascites (BCBL1 cells [2]; SCID mice, 10 million BCBL1 cells i.p., 30 mg/kg i.p. daily, vs saline, 30 mg/kg) | histopathology of BCBL1 tumor cells (BCBL1 cells [2]; tumor tissue of treated mice, vs saline mock treated) | proliferation of DG75 cells (DG75 cells [3]) | proliferation of BCBL1 cells (BCBL1 cells [4]) | cells that had undergone death (7AAD positive) [5] | changes in G1 phase of the cell cycle (DG75 cells [6]) | more cells arrested at G1 phase than mock-treated (BCBL1 cells [7]) | cyclin D1 levels (Western blot) [8] | ICN levels (Western blot) [9] | mitotic activity (CFSE) (DG75 cells [10]) | mitotic activity (CFSE) (BCBL1 cells [11])
CCCCCCCCCCCCCC(=O)O[C@@H]1[C@@H](C)[C@@]2(O)[C@@H](C=C(CO)C[C@]3(O)C(=O)C(C)=C[C@@H]23)[C@@H]2C(C)(C)[C@]12OC(C)=O [TPA, tetradecanoyl phorbol acetate] | GFP signals were detected | strongly expressed | infectious virions were produced | – | – | – | – | – | – | – | – | – | – | – | –
C[C@H](NC(=O)Cc1cc(F)cc(F)c1)C(=O)N[C@H](C(=O)OC(C)(C)C)c1ccccc1 [γ-secretase inhibitor, N—[N-(3,5-difluorophenacetyl-L-alanyl)]-S-phenylglycine t-butyl ester] | – | – | – | significantly prolong; also recorded: significantly increase | greatly slow down; also recorded: greatly delayed | necrosis and apoptosis; also recorded: a lot of necrotic and apoptotic cells | minimally affected | dramatically slowed | about 45.4% | no significant changes | approximately 30% | depressed | decreased | relatively unchanged | dramatically decreased
